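At the GI50, growth is halved. At the TGI there is no net growth.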
What was measured:
Assay in all cases: inhibition of tumour cell growth, NCI panel, 384-well format
786-0 renal = system: 786-0 renal
A498 renal = system: A498 renal
A549 NSCLC = system: A549 NSCLC
ACHN renal = system: ACHN renal
BT-549 breast = system: BT-549 breast
CAKI-1 renal = system: CAKI-1 renal
COLO 205 colon = system: COLO 205 colon
DU-145 prostate = system: DU-145 prostate
EKVX NSCLC = system: EKVX NSCLC
HCT-116 colon = system: HCT-116 colon
HCT-15 colon = system: HCT-15 colon
HL-60(TB) leukemia = system: HL-60(TB) leukemia
HOP-62 NSCLC = system: HOP-62 NSCLC
HOP-92 NSCLC = system: HOP-92 NSCLC
HS 578T breast = system: HS 578T breast
HT29 colon = system: HT29 colon
IGROV1 ovarian = system: IGROV1 ovarian
K-562 leukemia = system: K-562 leukemia
KM12 colon = system: KM12 colon
M14 melanoma = system: M14 melanoma
MALME-3M melanoma = system: MALME-3M melanoma
MCF7 breast = system: MCF7 breast
MDA-MB-231 breast = system: MDA-MB-231 breast
MDA-MB-435 melanoma = system: MDA-MB-435 melanoma
MDA-MB-468 breast = system: MDA-MB-468 breast
MOLT-4 leukemia = system: MOLT-4 leukemia
NCI-H226 lung = system: NCI-H226 lung
NCI-H23 lung = system: NCI-H23 lung
NCI-H322M lung = system: NCI-H322M lung
NCI-H460 NSCLC = system: NCI-H460 NSCLC
NCI-H522 lung = system: NCI-H522 lung
OVCAR-3 ovarian = system: OVCAR-3 ovarian
OVCAR-4 ovarian = system: OVCAR-4 ovarian
OVCAR-5 ovarian = system: OVCAR-5 ovarian
OVCAR-8 ovarian = system: OVCAR-8 ovarian
PC-3 prostate = system: PC-3 prostate
RXF 393 renal = system: RXF 393 renal
SF-268 CNS = system: SF-268 CNS
SF-295 CNS = system: SF-295 CNS
SF-539 CNS = system: SF-539 CNS
SK-MEL-2 melanoma = system: SK-MEL-2 melanoma
SK-MEL-28 melanoma = system: SK-MEL-28 melanoma
SK-MEL-5 melanoma = system: SK-MEL-5 melanoma
SK-OV-3 ovarian = system: SK-OV-3 ovarian
SN12C renal = system: SN12C renal
SNB-19 CNS = system: SNB-19 CNS
SNB-75 CNS = system: SNB-75 CNS
SR leukemia = system: SR leukemia
SW-620 colon = system: SW-620 colon
T-47D breast = system: T-47D breast
TK-10 renal = system: TK-10 renal
U251 glioblastoma = system: U251 glioblastoma
UACC-257 melanoma = system: UACC-257 melanoma
UACC-62 melanoma = system: UACC-62 melanoma
UO-31 renal = system: UO-31 renal

O=C(NOCCO)c1cc(CN2OCCCC2=O)c(F)c(F)c1Nc1ccc(I)cc1F
GI50 ([…]-0 renal): 11.6 µM | TGI (786-0 renal): 42 µM | GI50 (A498 renal): 0.236 µM | TGI (A498 renal): 23.4 µM | GI50 (A549 NSCLC): 0.0535 µM | TGI (A549 NSCLC): 10.9 µM | GI50 (ACHN renal): 3.48 µM | TGI (ACHN renal): > 100 µM | GI50 (BT-549 breast): 6.65 µM | TGI (BT-549 breast): 72.1 µM | GI50 (CAKI-1 renal): 0.059 µM | TGI (CAKI-1 renal): 24.9 µM | GI50 (COLO 205 colon): < 0.01 µM | TGI (COLO 205 colon): 0.027 µM | GI50 (DU-145 prostate): 1.41 µM | TGI (DU-145 prostate): > 100 µM | GI50 (EKVX NSCLC): 0.201 µM | TGI (EKVX NSCLC): 14.9 µM | GI50 (HCT-116 colon): 0.018 µM | TGI (HCT-116 colon): 1.28 µM | GI50 (HCT-15 colon): 5.87 µM | TGI (HCT-15 colon): > 100 µM | GI50 (HL-60(TB) leukemia): < 0.01 µM | TGI (HL-60(TB) leukemia): 10.6 µM | GI50 (HOP-62 NSCLC): 0.0251 µM | TGI (HOP-62 NSCLC): 64.6 µM | GI50 (HOP-92 NSCLC): 0.179 µM | TGI (HOP-92 NSCLC): 1.72 µM | GI50 (HS 578T breast): 3.48 µM | TGI (HS 578T breast): 23.8 µM | GI50 (HT29 colon): < 0.01 µM | TGI (HT29 colon): 20.8 µM | GI50 (IGROV1 ovarian): 0.0179 µM | TGI (IGROV1 ovarian): 7.87 µM | GI50 (K-562 leukemia): 0.0276 µM | TGI (K-562 leukemia): 17 µM | GI50 (KM12 colon): 1.71 µM | TGI (KM12 colon): > 100 µM | GI50 (M14 melanoma): < 0.01 µM | TGI (M14 melanoma): 0.0119 µM | GI50 (MALME-3M melanoma): < 0.01 µM | TGI (MALME-3M melanoma): < 0.01 µM | GI50 (MCF7 breast): 5.12 µM | TGI (MCF7 breast): 35.6 µM | GI50 (MDA-MB-231 breast): 0.0601 µM | TGI (MDA-MB-231 breast): > 100 µM | GI50 (MDA-MB-435 melanoma): < 0.01 µM | TGI (MDA-MB-435 melanoma): > 100 µM | GI50 (MDA-MB-468 breast): 2.56 µM | TGI (MDA-MB-468 breast): 13.8 µM | GI50 (MOLT-4 leukemia): 7.81 µM | TGI (MOLT-4 leukemia): 20.6 µM | GI50 (NCI-H226 lung): 0.0421 µM | TGI (NCI-H226 lung): 7.38 µM | GI50 (NCI-H23 lung): < 0.01 µM | TGI (NCI-H23 lung): 0.371 µM | GI50 (NCI-H322M lung): 0.0737 µM | TGI (NCI-H322M lung): 4.19 µM | GI50 (NCI-H460 NSCLC): 0.0236 µM | TGI (NCI-H460 NSCLC): 51.9 µM | GI50 (NCI-H522 lung): 5.97 µM | TGI (NCI-H522 lung): 30.2 µM | GI50 (OVCAR-3 ovarian): 10.2 µM | TGI (OVCAR-3 ovarian): 39.6 µM | GI50 (OVCAR-4 ovarian): 17.4 µM | TGI (OVCAR-4 ovarian): > 100 µM | GI50 (OVCAR-5 ovarian): < 0.01 µM | TGI (OVCAR-5 ovarian): > 100 µM | GI50 (OVCAR-8 ovarian): 4.6 µM | TGI (OVCAR-8 ovarian): 25.5 µM | GI50 (PC-3 prostate): 34.4 µM | TGI (PC-3 prostate): > 100 µM | GI50 (RXF 393 renal): 0.498 µM | TGI (RXF 393 renal): 7.61 µM | GI50 (SF-268 CNS): 24.8 µM | TGI (SF-268 CNS): > 100 µM | GI50 (SF-295 CNS): 11.2 µM | TGI (SF-295 CNS): 41.1 µM | GI50 (SF-539 CNS): 0.554 µM | TGI (SF-539 CNS): 4.03 µM | GI50 (SK-MEL-2 melanoma): < 0.01 µM | TGI (SK-MEL-2 melanoma): 0.019 µM | GI50 (SK-MEL-28 melanoma): < 0.01 µM | TGI (SK-MEL-28 melanoma): 0.0115 µM | GI50 (SK-MEL-5 melanoma): < 0.01 µM | TGI (SK-MEL-5 melanoma): 17.5 µM | GI50 (SK-OV-3 ovarian): 8.12 µM | TGI (SK-OV-3 ovarian): 55.4 µM | GI50 (SN12C renal): 1.28 µM | TGI (SN12C renal): > 100 µM | GI50 (SNB-19 CNS): 12.7 µM | TGI (SNB-19 CNS): 62.8 µM | GI50 (SNB-75 CNS): 2.85 µM | TGI (SNB-75 CNS): 17.7 µM | GI50 (SR leukemia): 2.12 µM | TGI (SR leukemia): 11.1 µM | GI50 (SW-620 colon): < 0.01 µM | TGI (SW-620 colon): > 100 µM | GI50 (T-47D breast): 21.5 µM | TGI (T-47D breast): 65.2 µM | GI50 (TK-10 renal): 0.198 µM | TGI (TK-10 renal): 44.7 µM | GI50 (U251 glioblastoma): 0.209 µM | TGI (U251 glioblastoma): 17.8 µM | GI50 (UACC-257 melanoma): < 0.01 µM | TGI (UACC-257 melanoma): < 0.01 µM | GI50 (UACC-62 melanoma): < 0.01 µM | TGI (UACC-62 melanoma): 0.0869 µM | GI50 (UO-31 renal): 0.133 µM | TGI (UO-31 renal): 2.13 µM

Reference: PubChem BioAssay (NCI)
